Results from patent US20130189200A1, “Oral Composition For Removing Tooth Stain” (REGENETISS, INC., priority 2010, published 2013).

Test: Whitening effect evaluation test (residual ratio of stain on tea-stained dry apatite)
Method: 1 to 2 g of hydroxyapatite (Biogel-HTP, Bio-Rad Laboratories, Inc.) was put into a 50 mL tube, and 20 mL of protein solution (1%, IXOS SCP5000, Nitta Gelatin Inc.) was added thereto, and the mixture was left to stand for 10 to 15 minutes, and then the mixture was separated by centrifugation at 3,000×g for 2 minutes to remove a supernatant. Next, after the centrifugation, 20 mL of stain solution (5 g of instant coffee, two tea bags and two green tea bags were put into 110 mL of water, and the mixture was heated by a microwave oven for 2 minutes. Then the mixture was cooled down at room temperature with shaking for 3 hours to one night. Then the mixture was filtered by a 200 mesh filter. The stain liquid was obtained like this.) was mixed with the precipitated apatite, and the mixture was left to stand for 10 to 15 minutes, and then the mixture was separated by centrifugation (2,500 rpm, 2 minutes) to remove a supernatant. Then, after centrifugation, 20 mL of artificial saliva (20 mM HEPES-KOH pH 7.0, 1.5 mM CaCl2 and 0.9 mM KH2PO4) was added into the precipitated apatite, and the mixture was left to stand for 10 to 15 minutes, and then the mixture was separated by centrifugation (2,500 rpm, 2 minutes). After removal of a supernatant from the mixture, the precipitated apatite was dried.
20 mg of the tea-stained dry apatite is weighed, and 0.3 mL of solution was added thereto, which contains H2O2 at various concentrations and, as appropriate, various phosphate polymers, NaOH and other substances, and then the mixture was left to stand at a certain temperature for a certain time. Then the apatite was precipitated by centrifugation (3,000×g, 15 seconds), and a supernatant was removed from the mixture, and then the apatite was mixed well with 1 mL of water to wash. Further, subsequent washing procedure was repeated four times. After that, the apatite was suspended in 200 μL of water, and the suspension was poured into a well of a 96 well microtiter plate. The 96 well microtiter plate was scanned from the bottom by a scanner (Epson GT8300). The image was inverted to be negative, and brightness analysis was performed by means of imageJ (free software), and then the residual ratio of stain was calculated.

With `NC(N)=O.OO` [carbamide peroxide] the “Residual ratio of stain” value (15% carbamide peroxide alone, NaOH 0 N, pH 7.0, 45 °C, 30 min) was 89.86%, the “Residual ratio of stain” value (15% carbamide peroxide alone, NaOH 0 N, pH 7.0, 45 °C, 60 min) was 87.73% and the “Residual ratio of stain” value (15% carbamide peroxide alone, NaOH 1 N, pH 11.4, 45 °C, 30 min) was 27.69%. The “Residual ratio of stain” value (15% carbamide peroxide alone, NaOH 1 N, pH 11.4, 45 °C, 60 min) was 30.39%, the “Residual ratio of stain” value (30% carbamide peroxide alone, NaOH 0 N, pH 7.1, 45 °C, 60 min) was 60.96% and the “Residual ratio of stain” value (30% carbamide peroxide alone, NaOH 1 N, pH 10.9, 45 °C, 30 min) was 19.01%. For the same compound, the “Residual ratio of stain” value (30% carbamide peroxide alone, NaOH 1 N, pH 10.9, 45 °C, 60 min) was 20.22% and the “Residual ratio of stain (highest whitening effect)” value (carbamide peroxide only, 30%, alkaline condition, treatment time 60 minutes (so in the source)) was 19.01%.
In the case of `OO` [hydrogen peroxide], the “Residual ratio of stain” value (3.5% H2O2, 0% ultraphosphate, pH 7.5, 42 °C, 10 min) is reported as 98.15%, the “Residual ratio of stain” value (3.5% H2O2, 0% ultraphosphate, pH 7.5, 42 °C, 30 min) is reported as 96.80% and the “Residual ratio of stain” value (3.5% H2O2, 0% ultraphosphate, pH 7.5, 42 °C, 60 min) is reported as 94.89%. The “Residual ratio of stain” value (3.5% H2O2, 0% ultraphosphate, pH 7.5, 42 °C, 180 min) was 88.78%, the “Residual ratio of stain” value (3.5% H2O2 alone, alkaline (1), pH 11.6, 45 °C, 30 min) was 49.23% and the “Residual ratio of stain” value (20% hydrogen peroxide under alkaline condition, 30 minutes treatment) was 40.08%.
